Measurements published in patent publication US20090156577A1, “7-AMINO ALKYLIDENYL-HETEROCYCLIC QUINOLONES AND NAPHTHYRIDONES” (priority 2004, published 2009).
In brackets after ≈: the same amount, converted by molar mass. Where a name gives a salt, the structure may show the parent alone. Read-outs that look alike come from different tables or passages of the source.

Test system: pathogenic bacteria
Experiment: MIC by microdilution broth method (NCCLS M7-A4), in vitro antibacterial activity
Format: cell-based
In short: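 MIC read after 35 °C incubation for 16–20 h relative to drug-free growth wells. Cation-adjusted Mueller-Hinton broth with two-fold compound dilutions, organisms at roughly 5×10^4 CFU/well final. Method follows NCCLS document M7-A4.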

[1] = Organism A: Staphylococcus aureus OC4172
[2] = Organism C: fluoroquinolone-resistant clinical isolate of Streptococcus pneumoniae (QRDR amino acid substitutions)
[3] = Organism D: fluoroquinolone-resistant clinical isolate of Streptococcus pneumoniae (QRDR amino acid substitutions)
[4] = Organism E: Streptococcus pneumoniae ATCC 49619
[5] = Streptococcus pneumoniae, ATCC49619, Organism E: Streptococcus pneumoniae ATCC 49619, read-out: MIC
[6] = Streptococcus pneumoniae, Organism D: fluoroquinolone-resistant clinical isolate of Streptococcus pneumoniae (QRDR amino acid substitutions)
[7] = Streptococcus pneumoniae, Organism B: fluoroquinolone-resistant clinical isolate of Streptococcus pneumoniae (QRDR amino acid substitutions)
[8] = Streptococcus pneumoniae, Organism C: fluoroquinolone-resistant clinical isolate of Streptococcus pneumoniae (QRDR amino acid substitutions)
[9] = Staphylococcus aureus, Organism A: Staphylococcus aureus OC4172, read-out: MIC
[10] = Staphylococcus aureus, Organism A: Staphylococcus aureus OC4172
[11] = Streptococcus pneumoniae, ATCC49619, Organism E: Streptococcus pneumoniae ATCC 49619

Row | Structure (SMILES) | MIC [1] | MIC (Organism B: fluoroquinolone-resistant clinical isolate of Streptococcus pneumoniae (QRDR amino acid substitutions)) | MIC [2] | MIC [3] | MIC [4] | MIC [5] | MIC [6] | MIC [7] | MIC [8] | MIC [9] | MIC [10] | MIC [11]
1 | CNCC(Cl)=C1CCN(c2nc3c(cc2F)c(=O)c(C(=O)O)cn3C2CC2)CC1 [Compound 216, 7-[4-(1-Chloro-2-methylamino-ethylidene)-piperidin-1-yl]-1-cyclopropyl-6-fluoro-4-oxo-1,4-dihydro-[1,8]naphthyridine-3-carboxylic acid] | 0.06 µg/mL (≈ 0.143 µM) | 0.12 µg/mL (≈ 0.285 µM) | 2 µg/mL (≈ 4.75 µM) | 1 µg/mL (≈ 2.38 µM) | 0.25 µg/mL (≈ 0.594 µM) | – | – | – | – | – | – | –
2 | CNCC(C)=C1CCN(c2nc3c(cc2F)c(=O)c(C(=O)O)cn3C2CC2)CC1 [Compound 217, 1-Cyclopropyl-6-fluoro-7-[4-(1-methyl-2-methylamino-ethylidene)-piperidin-1-yl]-4-oxo-1,4-dihydro-[1,8]naphthyridine-3-carboxylic acid] | 0.25 µg/mL (≈ 0.624 µM) | – | 2 µg/mL (≈ 4.99 µM) | 2 µg/mL (≈ 4.99 µM) | 0.25 µg/mL (≈ 0.624 µM) | – | – | – | – | – | – | –
3 | CNCC(C)=C1CCN(c2cc3c(cc2F)c(=O)c(C(=O)O)cn3C2CC2)CC1 [Compound 218, 1-Cyclopropyl-6-fluoro-7-[4-(1-methyl-2-methylamino-ethylidene)-piperidin-1-yl]-4-oxo-1,4-dihydro-quinoline-3-carboxylic acid] | 0.12 µg/mL (≈ 0.3 µM) | – | 2 µg/mL (≈ 5.01 µM) | – | – | 0.25 µg/mL (≈ 0.626 µM) | 2 µg/mL (≈ 5.01 µM) | – | – | – | – | –
4 | CNCC(C)=C1CCN(c2cc3c(cc2F)c(=O)c(C(=O)O)cn3C2CC2)CC1 [Compound 219, 1-Cyclopropyl-6-fluoro-7-[4-(1-methyl-2-methylamino-ethylidene)-piperidin-1-yl]-4-oxo-1,4-dihydro-quinoline-3-carboxylic acid] | 0.5 µg/mL (≈ 1.25 µM) | – | 8 µg/mL (≈ 20 µM) | 4 µg/mL (≈ 10 µM) | 0.5 µg/mL (≈ 1.25 µM) | – | – | 8 µg/mL (≈ 20 µM) | – | – | – | –
5 | CNCC(C)=C1CCN(c2c(F)cc3c(=O)c(C(=O)O)cn(C4CC4)c3c2OC(F)F)CC1 [Compound 220, 1-Cyclopropyl-8-difluoromethoxy-6-fluoro-7-[4-(1-methyl-2-methylamino-ethylidene)-piperidin-1-yl]-4-oxo-1,4-dihydro-quinoline-3-carboxylic acid] | 0.12 µg/mL (≈ 0.258 µM) | – | 4 µg/mL (≈ 8.59 µM) | 0.5 µg/mL (≈ 1.07 µM) | 0.5 µg/mL (≈ 1.07 µM) | – | – | 2 µg/mL (≈ 4.3 µM) | – | – | – | –
6 | CNCC=C1CCN(c2c(F)cc3c(=O)c(C(=O)O)cn(C4CC4)c3c2OC)CC1 [Compound 221, 1-Cyclopropyl-6-fluoro-8-methoxy-7-[4-(2-methylamino-ethylidene)-piperidin-1-yl]-4-oxo-1,4-dihydro-quinoline-3-carboxylic Acid Trifluoroacetic Acid Salt] | – | – | – | – | – | – | 4 µg/mL | 2 µg/mL | 4 µg/mL | – | – | –
7 | CC(C)NCC(F)=C1CCN(c2nc3c(cc2F)c(=O)c(C(=O)O)cn3C2CC2)CC1 [Compound 247, 1-Cyclopropyl-6-fluoro-7-[4-(1-fluoro-2-isopropylamino-ethylidene)-piperidin-1-yl]-4-oxo-1,4-dihydro-[1,8]naphthyridine-3-carboxylic acid] | – | – | – | – | – | 0.5 µg/mL (≈ 1.16 µM) | 2 µg/mL (≈ 4.62 µM) | – | 8 µg/mL (≈ 18.5 µM) | 0.5 µg/mL (≈ 1.16 µM) | – | –
8 | CC(C)NCC(Cl)=C1CCN(c2cc3c(cc2F)c(=O)c(C(=O)O)cn3C2CC2)CC1 [Compound 248, 7-[4-(1-Chloro-2-isopropylamino-ethylidene)-piperidin-1-yl]-1-cyclopropyl-6-fluoro-4-oxo-1,4-dihydro-quinoline-3-carboxylic acid] | – | – | – | – | – | 2 µg/mL (≈ 4.46 µM) | 4 µg/mL (≈ 8.93 µM) | – | 16 µg/mL (≈ 35.7 µM) | 0.5 µg/mL (≈ 1.12 µM) | – | –
9 | CC(C)NCC(F)=C1CCN(c2cc3c(cc2F)c(=O)c(C(=O)O)cn3C2CC2)CC1 [Compound 249, 1-Cyclopropyl-6-fluoro-7-[4-(1-fluoro-2-isopropylamino-ethylidene)-piperidin-1-yl]-4-oxo-1,4-dihydro-quinoline-3-carboxylic acid] | – | – | – | – | – | 2 µg/mL (≈ 4.64 µM) | 4 µg/mL (≈ 9.27 µM) | – | 16 µg/mL (≈ 37.1 µM) | 1 µg/mL (≈ 2.32 µM) | – | –
10 | CC(C)NCC(Cl)=C1CCN(c2c(F)cc3c(=O)c(C(=O)O)cn(C4CC4)c3c2OC(F)F)CC1 [Compound 250, 7-[4-(1-Chloro-2-isopropylamino-ethylidene)-piperidin-1-yl]-1-cyclopropyl-8-difluoromethoxy-6-fluoro-4-oxo-1,4-dihydro-quinoline-3-carboxylic acid] | – | – | – | – | – | 0.5 µg/mL (≈ 0.973 µM) | 0.5 µg/mL (≈ 0.973 µM) | – | 8 µg/mL (≈ 15.6 µM) | 0.25 µg/mL (≈ 0.486 µM) | – | –
11 | CC(C)NCC(F)=C1CCN(c2c(F)cc3c(=O)c(C(=O)O)cn(C4CC4)c3c2OC(F)F)CC1 [Compound 251, 1-Cyclopropyl-8-difluoromethoxy-6-fluoro-7-[4-(1-fluoro-2-isopropylamino-ethylidene)-piperidin-1-yl]-4-oxo-1,4-dihydro-quinoline-3-carboxylic acid] | – | – | – | – | – | 1 µg/mL (≈ 2.01 µM) | > 2 µg/mL | – | 16 µg/mL (≈ 32.2 µM) | 0.5 µg/mL (≈ 1.01 µM) | – | –
12 | COc1c(N2CCC(=C(F)CNC(C)C)CC2)c(F)cc2c(=O)c(C(=O)O)cn(C3CC3)c12 [Compound 252, 1-Cyclopropyl-6-fluoro-7-[4-(i-fluoro-2-isopropylamino-ethylidene)-piperidin-1-yl]-8-methoxy-4-oxo-1,4-dihydro-quinoline-3-carboxylic Acid trifluoroacetic acid salt] | – | – | – | – | – | 1 µg/mL | 4 µg/mL | – | 8 µg/mL | 0.5 µg/mL | – | –
13 | NC/C(F)=C1/CCCN(c2nc3c(cc2F)c(=O)c(C(=O)O)cn3C2CC2)C1 [Compound 253, (E)-7-[3-(2-Amino-1-fluoro-ethylidene)-piperidin-1-yl]-1-cyclopropyl-6-fluoro-4-oxo-1,4-dihydro-[1,8]naphthyridine-3-carboxylic acid trifluoroacetic acid salt] | – | – | – | – | – | – | 4 µg/mL | 4 µg/mL | > 16 µg/mL | – | 0.06 µg/mL | 0.5 µg/mL
14 | NC/C(Cl)=C1/CCCN(c2nc3c(cc2F)c(=O)c(C(=O)O)cn3C2CC2)C1 [Compound 254, (E)-7-[3-(2-Amino-1-chloro-ethylidene)-piperidin-1-yl]-1-cyclopropyl-6-fluoro-4-oxo-1,4-dihydro-[1,8]naphthyridine-3-carboxylic acid] | – | – | – | – | – | 0.25 µg/mL (≈ 0.614 µM) | 4 µg/mL (≈ 9.83 µM) | – | 4 µg/mL (≈ 9.83 µM) | 0.06 µg/mL (≈ 0.147 µM) | – | –
15 | NC/C(Cl)=C1\CCCN(c2nc3c(cc2F)c(=O)c(C(=O)O)cn3C2CC2)C1 [Compound 255, (Z)-7-[3-(2-Amino-1-chloro-ethylidene)-piperidin-1-yl]-1-cyclopropyl-6-fluoro-4-oxo-1,4-dihydro-[1,8]naphthyridine-3-carboxylic acid] | – | – | – | – | – | 4 µg/mL (≈ 9.83 µM) | 16 µg/mL (≈ 39.3 µM) | 2 µg/mL (≈ 4.92 µM) | 4 µg/mL (≈ 9.83 µM) | 0.5 µg/mL (≈ 1.23 µM) | – | –
16 | NC/C(F)=C1/CCCN(c2cc3c(cc2F)c(=O)c(C(=O)O)cn3C2CC2)C1 [Compound 256, (E)-7-[3-(2-Amino-1-fluoro-ethylidene)-piperidin-1-yl]-1-cyclopropyl-6-fluoro-4-oxo-1,4-dihydro-quinoline-3-carboxylic Acid Trifluoroacetic Acid Salt] | – | – | – | – | – | – | 1 µg/mL | 1 µg/mL | 1 µg/mL | – | 0.03 µg/mL | 0.06 µg/mL
17 | NC/C(Cl)=C1/CCCN(c2cc3c(cc2F)c(=O)c(C(=O)O)cn3C2CC2)C1 [Compound 257, (E)-7-[3-(2-Amino-1-chloro-ethylidene)-piperidin-1-yl]-1-cyclopropyl-6-fluoro-4-oxo-1,4-dihydro-quinoline-3-carboxylic acid] | – | – | – | – | – | 0.06 µg/mL (≈ 0.148 µM) | 0.5 µg/mL (≈ 1.23 µM) | 0.5 µg/mL (≈ 1.23 µM) | 0.5 µg/mL (≈ 1.23 µM) | 0.03 µg/mL (≈ 0.0739 µM) | – | –
